Measurements taken from patent US8609870B2, “Treating various disorders using TrkB agonists” (Emory University, priority 2008, dated 2013).

Assays:
Erk1/2 and Akt = Erk1/2 and Akt activation in hippocampal neurons (Western blot); format: cell-based; conditions: K252a pretreatment of hippocampal neurons
Description: BDNF binding to TrkB induces its autophosphorylation and, subsequently, activation of downstream kinase pathways including MAPK and PI3/Akt. To explore whether an identified active compound triggers TrkB activation, immunofluorescent staining on hippocampal neurons with anti-phospho TrkB antibody is conducted. To examine whether an identified active compound stimulates TrkB-mediated downstream signaling cascades, Western analysis is performed and the activation of Akt and Erk also is monitored. To test whether the stimulatory effect of an identified active compound is mediated through TrkB, cells are either untreated or treated with K252a, a selective inhibitor of the tyrosine kinase activity of the Trk family of neutrophin receptors. Cells treated with K252a block TrkB tyrosine phosphorylation in cells exposed to an identified active compound. To probe the time course of TrkB activation triggered by an identified active compound, hippocampal neurons are treated with an identified active compound at 500 nM and phosphorylation of Erk and Akt is determined over time by Western analysis. Whether stimulation of Erk and Akt by an identified active compound occurs in a dose dependent manner also is determined.
Both Akt and Erk1/2 were robustly activated by these molecules as well). […] The minimal required drug concentration was about 100-250 nM (see FIG. 7, right panels). […] To assess whether deoxygedunin provokes TrkB activation in the brain, mice (i.p.) were injected with a dose of 5 mg/kg for various time points. […] To establish that deoxygedunin is orally bioactive in provoking TrkB activation, two to three month old C57BL/6J mice were orally injected with various doses of 7,8-dihydroxyflavone or deoxygedunin then sacrificed 2 to 4 hours after administration. Brain lysates were prepared and analyzed by immunoblotting (see FIG. 10).

Akt and Erk1/2 = Akt and Erk1/2 activation in cortical neurons from TrkB F616A knockin mice; format: cell-based, mouse
Description: (§1) To explore whether the neuroprotective action of an identified active compound is dependent on TrkB activation in vivo, TrkB F616A knockin mice are used. […] To further assess whether an identified active compound can mimic BDNF, cortical neurons are prepared from TrkB F616A knockin mice. The cortical neurons are pretreated for 30 minutes with either K252a Trk tyrosine kinase inhibitor (100 nM) or 1NMPP1 inhibitor (100 nM) followed by 0.5 μM identified active compound for 30 minutes.
(§2) […] inversely correlated with TrkB activation by deoxygedunin (FIG. 20, top and middle panels).

TrkB F616A = target: T1, TrkB F616A (Mus musculus, UniProt P15209, F616A); assay: TrkB phosphorylation in cortical neurons from TrkB F616A knockin mice; format: cell-based; conditions: inhibitor pretreatment
T1 construct: cortical neurons from TrkB F616A knockin mice; endogenous in cells; host or cells: primary cortical neurons from TrkB F616A knock-in mice
T1 sequence (P15209 32-821 F616A): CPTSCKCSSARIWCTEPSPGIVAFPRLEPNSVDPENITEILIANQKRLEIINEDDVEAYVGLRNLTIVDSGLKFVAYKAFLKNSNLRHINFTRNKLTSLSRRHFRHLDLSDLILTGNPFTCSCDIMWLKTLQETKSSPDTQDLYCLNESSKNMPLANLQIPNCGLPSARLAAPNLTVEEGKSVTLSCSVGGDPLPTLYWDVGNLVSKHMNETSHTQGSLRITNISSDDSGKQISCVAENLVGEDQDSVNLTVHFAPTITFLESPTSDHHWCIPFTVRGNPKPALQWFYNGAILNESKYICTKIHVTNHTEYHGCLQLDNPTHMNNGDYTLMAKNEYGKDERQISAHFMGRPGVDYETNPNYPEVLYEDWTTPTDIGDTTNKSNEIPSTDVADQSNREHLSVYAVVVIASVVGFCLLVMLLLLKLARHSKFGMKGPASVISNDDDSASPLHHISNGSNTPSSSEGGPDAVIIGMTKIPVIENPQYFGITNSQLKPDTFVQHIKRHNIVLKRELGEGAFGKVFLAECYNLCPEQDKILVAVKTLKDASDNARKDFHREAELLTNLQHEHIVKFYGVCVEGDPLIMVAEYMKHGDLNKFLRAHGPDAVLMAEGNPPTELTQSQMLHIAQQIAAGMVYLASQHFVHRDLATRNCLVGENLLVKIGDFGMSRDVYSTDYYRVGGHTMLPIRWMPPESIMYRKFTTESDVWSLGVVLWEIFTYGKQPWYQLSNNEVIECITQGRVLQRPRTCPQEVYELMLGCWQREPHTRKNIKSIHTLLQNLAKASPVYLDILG
Description: as §1, §2

TrkB [1] = assay: TrkB phosphorylation in hippocampal neurons (immunofluorescent staining, immunoblotting); format: cell-based; conditions: K252a pretreatment of hippocampal neurons
Description: Unless specifically described, primary hippocampal neurons are seeded on poly-L lysine coated coverslips in a 12-well plate. After 7 days in vitro, the neurons are treated with 100 ng/ml BDNF or variety of flavone compounds (1 μM) for 30 minutes, and then are washed with PBS. Cells are fixed with 3% formaldehyde in PBS at room temperature for 10 minutes. The cells then are permeabilized and blocked by 0.4% Triton X-100 and 2% FBS in PBS at room temperature for 15 minutes, are washed with PBS three times, and are treated with anti-MAP2 (1:200) and anti-phospho-TrkB antibodies (1:500). After staining with FITC- or Rhodamine-conjugated secondary antibody, the coverslips are mounted on slides. Fluorescent images are taken by a fluorescence microscope.
BDNF binding to TrkB induces its autophosphorylation and, subsequently, activation of downstream kinase pathways including MAPK and PI3/Akt. […] To examine whether an identified active compound stimulates TrkB-mediated downstream signaling cascades, Western analysis is performed and the activation of Akt and Erk also is monitored. […] To probe the time course of TrkB activation triggered by an identified active compound, hippocampal neurons are treated with an identified active compound at 500 nM and phosphorylation of Erk and Akt is determined over time by Western analysis. […]

caspase-3 = assay: Caspase-3 activation in cortical neurons from knockout mouse pups; format: cell-based
Description: (§3) To determine whether an identified active compound selectively activates TrkB receptor and prevents neuronal cell death, cortical neurons are prepared from homozygous pups of TrkB +/− mice, which are mated to the same genotype. The activation of TrkB and down stream indicators of TrkB activation, such as Capase-3, are monitored. To further assess whether an identified active compound blocks neuronal apoptosis in a TrkB dependent manner, cortical neurons are prepared from homozygous pups of […], which are mated to the same genotype. Again, the activation of TrkB and down stream indicators of TrkB activation, such as Capase-3, are monitored.
(§4) Additionally, the spontaneous caspase-3 activation in […] was suppressed by deoxygedunin.

TrkA = TrkA (Mus musculus, UniProt Q3UFB7); assay: TrkA activation in cortical neurons from knockout mouse pups; format: cell-based; parameters: endogenous in cells; host or cells: primary cortical neurons from mouse pups; conditions: cortical neurons (pups of TrkB +/− mice)
Chain of TrkA (Q3UFB7 34-799): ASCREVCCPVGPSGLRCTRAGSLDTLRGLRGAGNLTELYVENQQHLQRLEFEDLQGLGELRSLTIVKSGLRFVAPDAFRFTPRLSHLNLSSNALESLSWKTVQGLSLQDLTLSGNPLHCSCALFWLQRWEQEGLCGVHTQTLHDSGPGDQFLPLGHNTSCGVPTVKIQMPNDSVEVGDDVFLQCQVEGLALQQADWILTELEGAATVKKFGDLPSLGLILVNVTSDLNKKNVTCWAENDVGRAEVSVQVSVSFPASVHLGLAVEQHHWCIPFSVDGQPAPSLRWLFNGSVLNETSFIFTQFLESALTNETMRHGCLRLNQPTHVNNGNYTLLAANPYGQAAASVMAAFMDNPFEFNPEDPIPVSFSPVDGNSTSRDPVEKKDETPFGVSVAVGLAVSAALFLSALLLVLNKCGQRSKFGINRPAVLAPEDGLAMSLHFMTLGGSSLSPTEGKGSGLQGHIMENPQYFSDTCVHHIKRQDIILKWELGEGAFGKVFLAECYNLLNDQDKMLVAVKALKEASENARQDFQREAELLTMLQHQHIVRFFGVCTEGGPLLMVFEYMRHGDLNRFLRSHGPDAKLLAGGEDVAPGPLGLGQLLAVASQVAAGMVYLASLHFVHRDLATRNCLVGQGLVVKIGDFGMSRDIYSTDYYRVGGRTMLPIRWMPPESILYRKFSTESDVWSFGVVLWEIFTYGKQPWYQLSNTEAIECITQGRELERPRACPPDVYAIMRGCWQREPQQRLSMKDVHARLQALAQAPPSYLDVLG

TrkB [2] = assay: TrkB activation in cortical neurons from knockout mouse pups; format: cell-based; conditions: wild-type cortical neurons (pups of TrkB +/− mice)
Description: as §3, §4

mice = assay: Forced swim test; format: in vivo, mouse
Description: To explore whether an identified active compound has an antidepressant effect like BDNF, a forced swim test is conducted. Adult male mice (2-3 months old) are randomly submitted, without a pre-swim, to a forced swim test of 6 minutes with immobility recorded in the last 4 minutes. The mice are injected intraperitoneally for 5 days with saline, imipramine (20 mg/kg), amitryptyline (15 mg/kg), or an identified active compound (5 mg/kg). The mice are allowed to adapt to the test room for 2 days, and the mice are placed in a clear glass cylinder with a diameter of 16 cm, half-filled with clear water at 24° C.
To investigate whether deoxygedunin mimicked BDNF in suppressing depression-like symptoms, a forced swim test after subchronic treatment of the mice for 5 days with various drugs was conducted. […] To assess whether the behavior responses by 7,8-DHF and deoxygedunin were mediated by TrkB receptor, TrkB F616A knockin mice were used. The transgenic mice were subjected to saline or 1NMPP1 treatment, respectively.

hippocampal neurons [3] = assay: Oxygen-glucose deprivation (OGD) apoptosis in hippocampal neurons; format: cell-based; conditions: apoptotic ratio compared to BDNF and DMSO
hippocampal neurons [4] = assay: Glutamate-triggered apoptosis in hippocampal neurons (MR(DEVD)2 / condensed nuclei); format: cell-based; conditions: 0.5 μM preincubated 30 min, then 50 μM glutamate 16 h
Description: To create and test reporter cell lines. In order to identify small molecules that mimic BDNF and activate TrkB, TrkB stably transfected murine cell lines are created. The T48 and T62 cell lines are created by transfecting basal forebrain SN56 cells, which express negligible TrkB, with a TrkB expression construct. To test expression of TrkB, the cells are treated with BDNF, which is predicted to result in strong phosphorylation of Trk-490 and Akt activation in comparison to the TrkA NTR stably expressing T17 cell line indicating expression of TrkB. To test resistance to apoptosis, the SN56 cells and the T48 cell line are either untreated or treated with BDNF, and then are subjected to an apoptotic assay. The apoptotic assay involves treating the cells with 0.75 μM Staurosporine for 9 hours, and 1 hour before completing the experiment, the cells are treated with 10 μM MR (DEVD)2. The cells then are fixed with 4% paraformaldehyde for 15 minutes, washed with phosphate buffered saline (PBS), and incubated with Hoechst 33342 for 10 minutes. Cover slides are washed with PBS, mounted, and then the cells are examined using a fluorescent microscope to see which cells turn red upon caspase cleavage.
To compare the apoptosis inhibitory activity of identified active compounds, the compounds are preincubated with SN56 and T48 cells, and subsequently are subjected to the fluorescent apoptotic assay as described above. To examine whether these identified active compounds promote neuronal survival, hippocampal neurons are prepared and the cultures are pretreated with the identified active compounds for 30 minutes, followed by treatment with 50 μM glutamate for 16 hours.
Using a cell-based screen as described above in Example 1 (based on the anti-apoptotic action of TrkB signaling) and the chemical library from the Spectrum Collection (described above), 66 positive hits were generated, four of which were gedunin derivatives. […] In this assay, neurons with both cleaved caspase (MR (DEVD)2 red cells) and condensed nuclei (DAPI staining) were counted as apoptotic cells. […]

TrkB F616A knockin mice = assay: KA-provoked apoptosis (caspase-3) in TrkB F616A knockin mice; format: in vivo, mouse
Description: To determine if 1NMPP1 makes neurons treated with an identified active compound vulnerable to KA-provoked neuronal cell death, TrkF616A knockin mice are fed with 1NMPP1 (25 mM) in drinking water one day prior to pharmacological reagent treatment. The next day, the mice are intraperitoneally injected with KA (25 mg/kg), or an identified active compound (5 mg/kg) 4 hours prior to KA injection. The control mice are injected with either KA or an identified active compound alone, or the mice are administered an identified active compound 4 hours before KA. After 4 days, the mice are sacrificed and the brains are homogenized and ultracentrifuged. The supernatant then is employed for SDS-PAGE and immunoblotting analysis.
as §2

Row | SMILES | blockade of glutamate-provoked caspase-3 activation (caspase-3; wild-type cortical neurons) | TrkA activation (TrkA) | blockade of glutamate-provoked caspase-3 activation (caspase-3; TrkB −/− cortical neurons) | blockade of BDNF-triggered Akt and Erk1/2 activation (Akt and Erk1/2) | blockade of BDNF-provoked TrkB phosphorylation (TrkB F616A) | blockade of deoxygedunin provoked TrkB phosphorylation (TrkB F616A) | TrkB activation (TrkB [2]) | further results
1 | COC(=O)[C@@]1(O)C[C@H]2O[C@]1(C)n1c3ccccc3c3c4c(c5c6ccccc6n2c5c31)C(=O)NC4 [K252a] |  |  |  | not K252a | not K252a | not K252a |  | blockade of deoxygedunin-provoked downstream Akt and MAPK signalings (Erk1/2 and Akt): blocked; blockade of deoxygedunin-triggered TrkB activation (TrkB [1]): substantially blocked
2 | CC(=O)O[C@@H]1CC2C(C)(C)C(=O)CC[C@]2(C)C2CC[C@]3(C)C(=CC(=O)O[C@H]3c3ccoc3)[C@@]21C (some centres unmarked) [dihydrodeoxygedunin] |  |  |  |  |  |  |  | protective effects on hippocampal neurons under OGD (hippocampal neurons [3]): potent protective effects; protective effect (apoptosis inhibitory activity) (hippocampal neurons [4]): protective effect
3 | CC(C)(C)n1nc(Cc2cccc3ccccc23)c2c(N)ncnc21 [1NMPP1] |  |  |  | blocked BDNF-triggered Akt and Erk1/2 activation | selectively blocked | selectively blocked |  | effect of 1NMPP1 pretreatment on deoxygedunin's protective effect (TrkB F616A knockin mice; F616A mice, KA): diminished deoxygedunin's protective effect; effect of 1NMPP1 pretreatment on KA-provoked apoptosis (TrkB F616A knockin mice; TrkB F616A mice): elevated KA-provoked apoptosis; effect on Akt and Erk1/2 activation by deoxygedunin (Akt and Erk1/2): diminished Akt and Erk1/2 activation; immobility time, 1NMPP1-treated versus saline (mice; TrkB F616A knockin mice, no test drug): No significant difference

More lines, main results first:

Row | blockade of glutamate-provoked caspase-3 activation (caspase-3; wild-type cortical neurons) | TrkA activation (TrkA) | blockade of glutamate-provoked caspase-3 activation (caspase-3; TrkB −/− cortical neurons) | SMILES | blockade of BDNF-triggered Akt and Erk1/2 activation (Akt and Erk1/2) | blockade of BDNF-provoked TrkB phosphorylation (TrkB F616A) | blockade of deoxygedunin provoked TrkB phosphorylation (TrkB F616A) | TrkB activation (TrkB [2]) | further results
4 | failed to block caspase-3 activation | not imipramine |  | CN(C)CCCN1c2ccccc2CCc2ccccc21 [imipramine, reference compound] |  |  |  | not imipramine | swimming immobility (mice; mice, subchronic treatment 5 days, imipramine 20 mg/kg, deoxygedunin 5 mg/kg): significantly decreased
5 | substantially blocked | not TrkA | not TrkB −/− neurons | O=c1cc(-c2ccccc2)oc2c(O)c(O)ccc12 [7,8-dihydroxyflavone] |  |  |  | selectively activated TrkB | 
6 | weakly suppressed caspase-3 activation | activated both TrkA and TrkB | weakly suppressed caspase-3 activation | CN(C)CCC=C1c2ccccc2CCc2ccccc21 [amitriptyline] |  |  |  | activated both TrkA and TrkB | 
